In ChEMBL document CHEMBL1201862, “PubChem BioAssay data set” (2004):
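Exposure lasted 48 hours, with cells grown in 96-well plates and compounds tested at five concentrations. GI50 is the concentration that inhibits growth by half.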 The source made the active and inactive calls. No stated cut-off is given here; in the data, active = GI50 up to about 1.1 µM and inactive = higher.

Legend:
Assay in all cases: inhibition of tumour cell growth, NCI panel, 48 h
HOP-92 = test system: HOP-92
KM12 = test system: KM12
HOP-62 = test system: HOP-62
NCI-H23 = test system: NCI-H23
U-251 = test system: U-251
SNB-75 = test system: SNB-75
IGROV-1 = test system: IGROV-1
DLD-1 = test system: DLD-1
ACHN = test system: ACHN
NCI-H226 = test system: NCI-H226
OVCAR-5 = test system: OVCAR-5
OVCAR-8 = test system: OVCAR-8
A498 = test system: A498
NCI-H460 = test system: NCI-H460
SW-620 = test system: SW-620
A549 = test system: A549
TK-10 = test system: TK-10
SN12C = test system: SN12C
OVCAR-4 = test system: OVCAR-4
OVCAR-3 = test system: OVCAR-3
HT-29 = test system: HT-29
LOX IMVI = test system: LOX IMVI
SF-295 = test system: SF-295
RXF 393 = test system: RXF 393
HCC 2998 = test system: HCC 2998
SNB-78 = test system: SNB-78
DMS-273 = test system: DMS-273
HCT-15 = test system: HCT-15
XF498 = test system: XF498
KM-20L2 = test system: KM-20L2
NCI-H522 = test system: NCI-H522
SF-539 = test system: SF-539
HL-60 = test system: HL-60
UO-31 = test system: UO-31
LXFL 529 = test system: LXFL 529
RPMI-8226 = test system: RPMI-8226
SK-OV-3 = test system: SK-OV-3
SNB-19 = test system: SNB-19
SK-MEL-2 = test system: SK-MEL-2
SK-MEL-5 = test system: SK-MEL-5
UACC-62 = test system: UACC-62
DMS-114 = test system: DMS-114
UACC-257 = test system: UACC-257
CCRF-CEM = test system: CCRF-CEM
SF-268 = test system: SF-268
M19-MEL = test system: M19-MEL
HCT-116 = test system: HCT-116
COLO 205 = test system: COLO 205
Malme-3M = test system: Malme-3M
HOP-18 = test system: HOP-18
786-0 = test system: 786-0
K562 = test system: K562
MOLT-4 = test system: MOLT-4
EKVX = test system: EKVX
M14 = test system: M14
SR = test system: SR
CAKI-1 = test system: CAKI-1
SK-MEL-28 = test system: SK-MEL-28

Compound: CC(C)(C)OC(=O)C1=C(O)C(C(=O)OC(C)(C)C)C23CCCCC12C(C(=O)OC(C)(C)C)C(O)=C3C(=O)OC(C)(C)C (stereo unspecified)
- GI50 (HOP-92): > 100 µM (inactive)
- GI50 (KM12): > 100 µM (inactive)
- GI50 (HOP-62): > 100 µM (inactive)
- GI50 (NCI-H23): > 100 µM (inactive)
- GI50 (U-251): > 100 µM (inactive)
- GI50 (SNB-75): > 100 µM (inactive)
- GI50 (IGROV-1): > 100 µM (inactive)
- GI50 (DLD-1): > 100 µM (inactive)
- GI50 (ACHN): > 100 µM (inactive)
- GI50 (NCI-H226): > 100 µM (inactive)
- GI50 (OVCAR-5): > 100 µM (inactive)
- GI50 (OVCAR-8): > 100 µM (inactive)
- GI50 (A498): > 100 µM (inactive)
- GI50 (NCI-H460): > 100 µM (inactive)
- GI50 (SW-620): > 100 µM (inactive)
- GI50 (A549): > 100 µM (inactive)
- GI50 (TK-10): > 100 µM (inactive)
- GI50 (SN12C): > 100 µM (inactive)
- GI50 (OVCAR-4): > 100 µM (inactive)
- GI50 (OVCAR-3): > 100 µM (inactive)
- GI50 (HT-29): > 100 µM (inactive)
- GI50 (LOX IMVI): > 100 µM (inactive)
- GI50 (SF-295): > 100 µM (inactive)
- GI50 (RXF 393): > 100 µM (inactive)
- GI50 (HCC 2998): > 100 µM (inactive)
- GI50 (SNB-78): > 100 µM (inactive)
- GI50 (DMS-273): > 100 µM (inactive)
- GI50 (HCT-15): > 100 µM
- GI50 (XF498): > 100 µM (inactive)
- GI50 (KM-20L2): > 100 µM (inactive)
- GI50 (NCI-H522): > 100 µM (inactive)
- GI50 (SF-539): > 100 µM (inactive)
- GI50 (HL-60): > 100 µM (inactive)
- GI50 (UO-31): > 100 µM (inactive)
- GI50 (LXFL 529): > 100 µM (inactive)
- GI50 (RPMI-8226): > 100 µM (inactive)
- GI50 (SK-OV-3): > 100 µM (inactive)
- GI50 (SNB-19): > 100 µM (inactive)
- GI50 (SK-MEL-2): > 100 µM (inactive)
- GI50 (SK-MEL-5): > 100 µM (inactive)
- GI50 (UACC-62): > 100 µM (inactive)
- GI50 (DMS-114): > 100 µM (inactive)
- GI50 (UACC-257): > 100 µM (inactive)
- GI50 (CCRF-CEM): > 100 µM (inactive)
- GI50 (SF-268): > 100 µM (inactive)
- GI50 (M19-MEL): > 100 µM (inactive)
- GI50 (HCT-116): > 100 µM (inactive)
- GI50 (COLO 205): > 100 µM (inactive)
- GI50 (Malme-3M): > 100 µM (inactive)
- GI50 (HOP-18): > 100 µM (inactive)
- GI50 (786-0): > 100 µM (inactive)
- GI50 (K562): > 100 µM (inactive)
- GI50 (MOLT-4): > 100 µM (inactive)
- GI50 (EKVX): > 100 µM (inactive)
- GI50 (M14): > 100 µM (inactive)
- GI50 (SR): > 100 µM (inactive)
- GI50 (CAKI-1): > 100 µM (inactive)

Compound: Nc1ccn(CC(CO)CC(c2ccccc2)P(=O)(O)O)c(=O)n1 (stereo unspecified)
- GI50 (HOP-92): > 100 µM (inactive)
- GI50 (KM12): > 100 µM (inactive)
- GI50 (HOP-62): > 100 µM (inactive)
- GI50 (NCI-H23): > 100 µM (inactive)
- GI50 (IGROV-1): > 100 µM (inactive)
- GI50 (DLD-1): > 100 µM (inactive)
- GI50 (ACHN): > 100 µM (inactive)
- GI50 (NCI-H226): > 100 µM (inactive)
- GI50 (OVCAR-5): > 100 µM (inactive)
- GI50 (OVCAR-8): > 100 µM (inactive)
- GI50 (A498): > 100 µM (inactive)
- GI50 (NCI-H460): > 100 µM (inactive)
- GI50 (SW-620): > 100 µM (inactive)
- GI50 (A549): > 100 µM (inactive)
- GI50 (TK-10): > 100 µM (inactive)
- GI50 (SN12C): > 100 µM (inactive)
- GI50 (OVCAR-3): > 100 µM (inactive)
- GI50 (HT-29): > 100 µM (inactive)
- GI50 (LOX IMVI): > 100 µM (inactive)
- GI50 (SF-295): > 100 µM (inactive)
- GI50 (RXF 393): > 100 µM (inactive)
- GI50 (HCC 2998): > 100 µM (inactive)
- GI50 (SNB-78): > 100 µM (inactive)
- GI50 (DMS-273): > 100 µM (inactive)
- GI50 (HCT-15): > 100 µM
- GI50 (XF498): > 100 µM (inactive)
- GI50 (KM-20L2): > 100 µM (inactive)
- GI50 (NCI-H522): > 100 µM (inactive)
- GI50 (SF-539): > 100 µM (inactive)
- GI50 (HL-60): > 100 µM (inactive)
- GI50 (UO-31): > 100 µM (inactive)
- GI50 (SK-MEL-28): > 100 µM (inactive)
- GI50 (LXFL 529): > 100 µM (inactive)
- GI50 (RPMI-8226): > 100 µM (inactive)
- GI50 (SK-OV-3): > 100 µM (inactive)
- GI50 (SNB-19): > 100 µM (inactive)
- GI50 (SK-MEL-2): > 100 µM (inactive)
- GI50 (SK-MEL-5): > 100 µM (inactive)
- GI50 (UACC-62): > 100 µM (inactive)
- GI50 (DMS-114): > 100 µM (inactive)
- GI50 (UACC-257): > 100 µM (inactive)
- GI50 (CCRF-CEM): > 100 µM (inactive)
- GI50 (SF-268): > 100 µM (inactive)
- GI50 (M19-MEL): > 100 µM (inactive)
- GI50 (HCT-116): > 100 µM (inactive)
- GI50 (COLO 205): > 100 µM (inactive)
- GI50 (Malme-3M): > 100 µM (inactive)
- GI50 (HOP-18): < 0.01 µM (active)
- GI50 (786-0): > 100 µM (inactive)
- GI50 (K562): > 100 µM (inactive)
- GI50 (MOLT-4): > 100 µM (inactive)
- GI50 (EKVX): > 100 µM (inactive)
- GI50 (M14): > 100 µM (inactive)
- GI50 (CAKI-1): > 100 µM (inactive)
